Experimental findings from patent publication US6720424B1, “Aminobenzoic acid derivatives” (Taisho Pharmaceutical Co., Ltd., priority 1999, dated 2004) are described below.

In one series the target is T1, Flt-1 (Homo sapiens, UniProt P17948).
T1 construct: expressed in transfected cells; host or cells: NIH3T3
Nature of the series: (125I)-VEGF binding inhibition on NIH3T3 cells in which Flt-1 was forced to be expressed. To be noted: Flt-1-expressing NIH3T3 cells, (125I)-VEGF 25 pM, 90 minutes; read-out: IC50 (concentration of 50% binding inhibition). As to the method: (§1) According to the method described in a document (Cell Growth & Differentiation, vol. 7, pp. 213-221, 1996), the following tests were carried out.
(§2) NIH3T3 cells in which Flt-1 was forced to be expressed were seeded on a 24-well collagen-coated plate (7×10^4/well), and were cultured in Dulbecco's modified Eagle's medium (DMEM) including 10% bovine serum and 200 μg/ml of Geneticin G418, for 24 hours at 37° C. under an atmosphere of 5% carbon dioxide gas. The cells were preincubated in Buffer A (including 10 mM HEPES (N-2-hydroxyethylpiperazine-N′-2-ethanesulfonic acid) and 0.1% BSA (bovine serum albumin) in DMEM), for 30 minutes at 4° C. Subsequently, the medium was replaced with Buffer B (including 10 mM HEPES and 0.5% BSA in DMEM). A test solution prepared by dissolving each of the test compounds shown in Table 19 in dimethylsulfoxide and subsequently diluting the solution into a prescribed concentration with Buffer B, and (^125I)-VEGF (the final concentration was set to 25 pM) were added thereto. Binding reaction was carried out for 90 minutes at […]. After completion of the reaction, the cells were washed three times with ice-cooled Buffer A. Subsequently, 0.5 ml of 0.5M NaOH were added to each well, and the cells were lysed in 30 minutes at room temperature. The radioactivity of the lysed cells in each well was measured by means of a gamma counter, and a total binding quantity of (^125I)-VEGF was calculated. Nonspecific binding quantity of (^125I)-VEGF was measured by competition assay in the presence of 10 nM non-labeled VEGF. The specific binding quantity of (^125I)-VEGF was calculated from the difference between the total binding quantity of (^125I)-VEGF and nonspecific binding quantity of (^125I)-VEGF.
(§3) The binding inhibition index of the test compounds was calculated by the following equation. [formula]
(§4) From this value, a concentration of 50% binding inhibition (IC50) of the test compound was calculated.

A further series has as its target T2, KDR (Homo sapiens, UniProt P35968).
T2 construct: expressed in transfected cells; host or cells: NIH3T3
Put plainly: (125I)-VEGF binding inhibition on NIH3T3 cells in which KDR was forced to be expressed. To be noted: KDR-expressing NIH3T3 cells, (125I)-VEGF 25 pM, 90 minutes, read-out: IC50 (concentration of 50% binding inhibition). As to the method:
as §1, §2, §3, §4
Test on each of the test compounds shown in Table 20 and Table 21 was carried out employing NIH3T3 cells in which KDR was forced to be expressed, in the same manner as described in Experimental Example 1 described above.

Read-outs that look alike come from different tables or passages of the source.

T2 sequence (P35968 20-1356): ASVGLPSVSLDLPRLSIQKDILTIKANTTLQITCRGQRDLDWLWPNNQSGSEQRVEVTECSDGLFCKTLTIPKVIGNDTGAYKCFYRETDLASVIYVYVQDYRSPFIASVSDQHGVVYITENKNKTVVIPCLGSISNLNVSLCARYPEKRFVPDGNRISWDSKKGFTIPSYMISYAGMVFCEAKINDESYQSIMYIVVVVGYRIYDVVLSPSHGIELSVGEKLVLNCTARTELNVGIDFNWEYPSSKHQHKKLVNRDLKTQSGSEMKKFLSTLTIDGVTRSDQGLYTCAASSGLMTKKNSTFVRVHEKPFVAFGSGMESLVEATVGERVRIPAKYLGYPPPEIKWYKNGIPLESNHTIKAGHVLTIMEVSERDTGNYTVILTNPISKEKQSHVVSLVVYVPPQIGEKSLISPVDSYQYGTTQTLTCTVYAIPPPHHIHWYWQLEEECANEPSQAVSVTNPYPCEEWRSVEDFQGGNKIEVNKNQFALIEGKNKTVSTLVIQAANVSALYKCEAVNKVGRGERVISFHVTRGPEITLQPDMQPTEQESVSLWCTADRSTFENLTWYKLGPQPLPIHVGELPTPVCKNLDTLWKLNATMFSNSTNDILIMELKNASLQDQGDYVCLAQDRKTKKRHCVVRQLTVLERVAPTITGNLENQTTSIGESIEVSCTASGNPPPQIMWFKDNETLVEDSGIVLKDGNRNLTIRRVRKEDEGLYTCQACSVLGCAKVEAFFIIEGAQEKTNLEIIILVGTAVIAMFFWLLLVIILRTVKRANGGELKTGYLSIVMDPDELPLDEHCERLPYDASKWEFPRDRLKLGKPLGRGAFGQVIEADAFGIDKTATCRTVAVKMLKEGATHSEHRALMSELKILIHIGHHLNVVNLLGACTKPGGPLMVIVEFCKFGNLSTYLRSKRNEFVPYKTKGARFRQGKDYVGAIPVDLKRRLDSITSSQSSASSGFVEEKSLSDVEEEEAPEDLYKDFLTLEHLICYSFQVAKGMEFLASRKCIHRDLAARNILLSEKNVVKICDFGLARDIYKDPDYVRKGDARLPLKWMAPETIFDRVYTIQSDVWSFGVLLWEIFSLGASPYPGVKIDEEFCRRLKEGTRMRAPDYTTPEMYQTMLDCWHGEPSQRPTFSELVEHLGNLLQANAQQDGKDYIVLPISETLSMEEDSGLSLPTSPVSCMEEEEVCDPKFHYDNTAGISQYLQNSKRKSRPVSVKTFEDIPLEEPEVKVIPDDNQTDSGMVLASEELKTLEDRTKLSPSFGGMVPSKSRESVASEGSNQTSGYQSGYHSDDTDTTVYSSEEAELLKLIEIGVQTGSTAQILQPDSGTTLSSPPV
T1 sequence (P17948 27-1338): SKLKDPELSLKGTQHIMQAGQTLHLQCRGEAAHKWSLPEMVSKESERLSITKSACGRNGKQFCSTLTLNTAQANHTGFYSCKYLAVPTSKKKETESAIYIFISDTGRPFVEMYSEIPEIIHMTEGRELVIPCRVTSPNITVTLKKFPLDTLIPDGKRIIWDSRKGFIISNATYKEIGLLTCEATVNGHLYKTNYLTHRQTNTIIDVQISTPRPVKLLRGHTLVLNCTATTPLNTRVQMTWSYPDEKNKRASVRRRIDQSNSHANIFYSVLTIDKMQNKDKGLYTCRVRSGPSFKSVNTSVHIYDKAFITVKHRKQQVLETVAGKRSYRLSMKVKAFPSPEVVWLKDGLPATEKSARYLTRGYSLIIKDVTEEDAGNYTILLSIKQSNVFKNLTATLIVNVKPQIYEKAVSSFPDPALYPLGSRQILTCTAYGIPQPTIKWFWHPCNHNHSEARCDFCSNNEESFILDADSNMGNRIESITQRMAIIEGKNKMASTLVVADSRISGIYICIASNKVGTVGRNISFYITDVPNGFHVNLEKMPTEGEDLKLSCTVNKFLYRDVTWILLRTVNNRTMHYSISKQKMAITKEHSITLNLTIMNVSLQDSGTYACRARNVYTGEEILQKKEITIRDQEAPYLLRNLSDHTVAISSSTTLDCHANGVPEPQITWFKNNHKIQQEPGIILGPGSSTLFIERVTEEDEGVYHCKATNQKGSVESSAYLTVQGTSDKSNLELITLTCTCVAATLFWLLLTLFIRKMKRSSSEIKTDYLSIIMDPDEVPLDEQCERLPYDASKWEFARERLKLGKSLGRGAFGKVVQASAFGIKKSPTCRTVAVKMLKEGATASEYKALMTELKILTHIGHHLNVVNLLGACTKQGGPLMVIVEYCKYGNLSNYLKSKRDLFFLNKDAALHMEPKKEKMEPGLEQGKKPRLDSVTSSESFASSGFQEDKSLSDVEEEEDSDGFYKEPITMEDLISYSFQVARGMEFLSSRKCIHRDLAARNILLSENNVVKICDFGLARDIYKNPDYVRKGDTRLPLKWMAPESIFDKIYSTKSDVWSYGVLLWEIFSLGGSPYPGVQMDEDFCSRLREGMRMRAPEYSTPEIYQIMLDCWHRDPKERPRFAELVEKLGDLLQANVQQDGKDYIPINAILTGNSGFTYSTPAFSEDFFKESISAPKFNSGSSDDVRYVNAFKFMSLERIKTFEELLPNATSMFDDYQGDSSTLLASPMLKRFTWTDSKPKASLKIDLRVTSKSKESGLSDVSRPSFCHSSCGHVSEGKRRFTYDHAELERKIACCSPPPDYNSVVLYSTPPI

The term melting point denotes the temperature of the solid-liquid transition. Molecule `CCCCCCCCCCCCCCCCCCOc1ccc(CCC(=O)Nc2ccc(Oc3cccc(C(=O)O)c3)c(C(=O)O)c2)cc1` [Compound 28] returned a melting point of 201 to 205 °C. Besides, the IC50 at Flt-1 worked out at 710 nM. On KDR (Table 20), the IC50 worked out at 420 nM.

As for `CCCCCCCCCCCCCCCCCCOc1ccc(CCC(=O)Nc2ccc(Oc3ccc(C(=O)O)cc3)c(C(=O)O)c2)cc1` [Compound 27], the melting point lay in the range of 213 to 215 °C. For the same molecule, at Flt-1, the IC50 was found to be 680 nM. Further, the IC50 at KDR (Table 20) was 510 nM.

Regarding `CCCCCCCCCCCCCCCCCCOc1ccc(CCC(=O)N(C)c2ccc(SC)c(C(=O)O)c2)cc1` [Compound 113], the melting point was in the range of 106 to 108 °C. Also, the IC50 at Flt-1 stood at 280 nM. Moreover, the IC50 at KDR (Table 21) amounted to 80 nM.

Regarding `CCCCCCCCCCCCCCCCCCOc1ccc(CC(=O)N(C)c2ccc(SC)c(C(=O)O)c2)cc1` [Compound 114], the figures for the IC50 at Flt-1 and at KDR (Table 21) were 420 nM and 340 nM, respectively.

`CCCCCCCCCCCCCCCCCCOc1ccc(CCC(=O)Nc2ccc(Oc3ccc4cc(C(=O)O)ccc4c3)c(C(=O)O)c2)cc1` [Compound 35] had a melting point of 215 to 225 °C. Moreover, the IC50 at KDR (Table 20) turned out to be 200 nM.

`CCCCCCCCCCCCCCCCOc1ccc(OCCCC(=O)Nc2ccc(SC)c(C(=O)O)c2)cc1` [Compound 134]: the melting point was 197 to 202 °C. Besides, the IC50 at KDR (Table 21) is 120 nM.

`CCCCCCCCCCCCCCCCCCOc1ccc(CCC(=O)Nc2cc(C(=O)O)ccc2SCCC)cc1` [Compound 147] displayed a melting point of 150 to 152 °C. In addition, the IC50 at KDR (Table 21) is 570 nM.

The molecule `CCCCCCCCCCCCCCCCCCOc1ccc(CCC(=O)Nc2cc(C(=O)O)ccc2Oc2ccc3cc(C(=O)O)ccc3c2)cc1` [Compound 38] showed a melting point of 214 to 219 °C. Further, the IC50 at KDR (Table 20) turned out to be 710 nM.

Regarding `CCCCCCCCCCCCCCCCCCOc1ccc(C=CC(=O)N(C)c2ccc(SC)c(C(=O)O)c2)cc1` [Compound 153], the melting point fell in the range of 156 to 157 °C. In addition, the IC50 on KDR (Table 21) was determined as 250 nM.

Turning to `CCCCCCCCCCCCCCCCCCOc1ccc(CCC(=O)Nc2cc(C(=O)O)ccc2SC)cc1` [Compound 145], the melting point fell in the range of 216 to 219 °C. For the same molecule, at KDR (Table 21), the IC50 was found to be 1290 nM.

In turn, `CCCCCCCCCCCCCCCCCCOc1ccc(CCC(=O)Nc2ccc(Nc3cccc(C(=O)O)c3)c(C(=O)O)c2)cc1` [Compound 46] yielded a melting point of 235 to 240 °C. Besides, at KDR (Table 20), the IC50 was found to be 400 nM.

Regarding `CCCCCCCCCCCCCCCCCCOc1ccc(CCC(=O)Nc2ccc(Oc3ccc(CCC(=O)O)cc3)c(C(=O)O)c2)cc1` [Compound 33], the melting point fell in the range of 156 to 160 °C. For the same molecule, on KDR (Table 20), the IC50 amounted to 260 nM.

As to `CCCCCCCCCCCCCCCCCCOc1ccc(CCC(=O)Nc2cc(C(=O)O)ccc2Sc2cccc(C(=O)O)c2)cc1` [Compound 43], the melting point was 246 to 248 °C. Further, the IC50 on KDR (Table 20) is 660 nM.

In the case of `CCCCCCCCOc1ccc(OCCCCCCCCCCCC(=O)Nc2ccc(SC)c(C(=O)O)c2)cc1` [Compound 138], the melting point fell in the range of 180 to 185 °C. Also, the IC50 at KDR (Table 21) was determined as 430 nM.

On to `CCCCCCCCCCCCCCCCCCOc1ccc(CCC(=O)Nc2ccc(Oc3ccccc3C(=O)O)c(C(=O)O)c2)cc1` [Compound 29], for which the melting point fell in the range of 184 to 186 °C. Moreover, the IC50 on KDR (Table 20) was 1190 nM.
